# Several values for one entry are separate records, joined by “and”; a condition that tells them apart may be missing. Identical values can stand only once.
# Legend:
# [1] = tested on: HDAC1,2,3,6,8; assay: HDAC-Glo assay (panel); format: biochemical, human; details: for HDAC inhibition by the oxidized form: absence of TCEP; for EC50: with TCEP, range over HDAC1,2,3,6,8, read-out: EC50 of HDAC inhibition, reduced form
# Procedure: (§1) To validate the inhibition of HDACs by LA and LM and elaborate on the structure-activity relationship (SAR) of enantiomers as well as oxidized versus reduced forms of the molecules, we performed enzyme activity assays for recombinant HDAC1,2,3,6,8 as well as FRET-based binding assay for recombinant HDAC10.
# (§2) The experiments were performed according to ref. [48]. […] Drug dosing was performed with a D300e Digital Dispenser (Tecan). HDACs (7 ng/mL for HDAC1, 25 ng/mL for HDAC2, 200 ng/mL for HDAC3/Ncor2 complex, 100 ng/mL for HDAC6, 200 ng/mL for HDAC8) and inhibitors were incubated together at room temperature (RT) for 30 min. After the addition of the HDAC-Glo™ I/II reagent, plates were shaken (800 rpm orbital shaker, 30 s), centrifuged (300 g, 1 min), and incubated at RT for 30 min. Luminescence was detected with a CLARIOstar (BMG Labtech) plate reader.
# [2] = target: HDAC2 (Homo sapiens, UniProt Q92769); assay: HDAC-Glo assay; format: biochemical; set-up: purchased BPS Bioscience 50002; details: for EC50: read-out: log EC50 from dose-dependent HDAC inhibition curves (converted); for HDAC2 relative activity: sheet S2b
# Procedure: as §1, §2
# [3] = target: T1, HDAC6 (Homo sapiens, UniProt Q9UBN7); assay: HDAC-Glo assay; format: biochemical; set-up: purchased BPS Bioscience 50006; details: for EC50: read-out: log EC50 from dose-dependent HDAC inhibition curves (converted)
# T1 sequence (Q9UBN7 1-1215): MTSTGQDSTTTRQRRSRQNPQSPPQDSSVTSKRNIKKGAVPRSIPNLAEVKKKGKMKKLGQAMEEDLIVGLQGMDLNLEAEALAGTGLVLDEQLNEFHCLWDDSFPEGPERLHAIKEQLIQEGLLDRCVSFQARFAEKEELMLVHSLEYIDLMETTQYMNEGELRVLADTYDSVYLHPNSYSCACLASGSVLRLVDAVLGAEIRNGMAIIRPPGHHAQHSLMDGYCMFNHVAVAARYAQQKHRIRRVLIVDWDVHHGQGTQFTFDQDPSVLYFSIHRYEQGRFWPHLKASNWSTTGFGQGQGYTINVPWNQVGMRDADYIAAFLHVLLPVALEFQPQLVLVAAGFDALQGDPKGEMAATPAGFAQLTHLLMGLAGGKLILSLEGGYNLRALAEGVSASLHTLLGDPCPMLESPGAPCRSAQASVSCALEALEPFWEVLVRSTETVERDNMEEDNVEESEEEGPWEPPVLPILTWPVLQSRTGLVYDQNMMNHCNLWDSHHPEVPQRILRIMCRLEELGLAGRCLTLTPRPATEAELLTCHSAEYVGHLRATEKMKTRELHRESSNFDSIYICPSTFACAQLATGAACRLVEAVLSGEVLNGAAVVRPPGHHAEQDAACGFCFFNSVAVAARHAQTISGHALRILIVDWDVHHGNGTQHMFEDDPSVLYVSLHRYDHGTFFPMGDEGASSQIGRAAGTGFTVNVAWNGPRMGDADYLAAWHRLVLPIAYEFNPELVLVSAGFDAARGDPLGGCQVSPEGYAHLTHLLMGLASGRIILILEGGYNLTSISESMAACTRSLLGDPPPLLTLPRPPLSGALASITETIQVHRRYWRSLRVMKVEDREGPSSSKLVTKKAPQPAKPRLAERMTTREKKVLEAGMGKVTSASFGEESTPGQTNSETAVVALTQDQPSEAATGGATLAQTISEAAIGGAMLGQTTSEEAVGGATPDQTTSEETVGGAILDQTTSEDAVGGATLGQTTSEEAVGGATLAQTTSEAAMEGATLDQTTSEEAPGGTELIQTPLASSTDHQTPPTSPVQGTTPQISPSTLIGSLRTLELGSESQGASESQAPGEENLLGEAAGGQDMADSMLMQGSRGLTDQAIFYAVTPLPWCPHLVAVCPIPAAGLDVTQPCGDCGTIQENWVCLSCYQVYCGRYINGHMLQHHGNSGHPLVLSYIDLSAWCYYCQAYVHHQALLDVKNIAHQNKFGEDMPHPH
# Procedure: as §1, §2
# [4] = 0.5 M TCEP, log10 M -3.30103, 3 technical replicates
# [5] = 0.5 M TCEP, log10 M -3.82945, 3 technical replicates
# [6] = 0.5 M TCEP, log10 M -4.35788, 3 technical replicates
# [7] = 0.5 M TCEP, log10 M -4.88629, 3 technical replicates
# [8] = 0.5 M TCEP, log10 M -5.41477, 3 technical replicates
# [9] = 0.5 M TCEP, log10 M -5.94309, 3 technical replicates
# [10] = 0.5 M TCEP, log10 M -6.47756, 3 technical replicates
# [11] = 0.5 M TCEP, log10 M -6.87615, 3 technical replicates
# [12] = no TCEP, log10 M -3.30103, 3 technical replicates
# [13] = no TCEP, log10 M -3.82945, 3 technical replicates
# [14] = no TCEP, log10 M -4.35788, 3 technical replicates
# [15] = no TCEP, log10 M -4.88629, 3 technical replicates
# [16] = no TCEP, log10 M -5.41477, 3 technical replicates
# [17] = no TCEP, log10 M -5.94309, 3 technical replicates
# [18] = no TCEP, log10 M -6.47756, 3 technical replicates
# [19] = no TCEP, log10 M -6.87615, 3 technical replicates
# Chain of HDAC2 (Q92769 whole entry): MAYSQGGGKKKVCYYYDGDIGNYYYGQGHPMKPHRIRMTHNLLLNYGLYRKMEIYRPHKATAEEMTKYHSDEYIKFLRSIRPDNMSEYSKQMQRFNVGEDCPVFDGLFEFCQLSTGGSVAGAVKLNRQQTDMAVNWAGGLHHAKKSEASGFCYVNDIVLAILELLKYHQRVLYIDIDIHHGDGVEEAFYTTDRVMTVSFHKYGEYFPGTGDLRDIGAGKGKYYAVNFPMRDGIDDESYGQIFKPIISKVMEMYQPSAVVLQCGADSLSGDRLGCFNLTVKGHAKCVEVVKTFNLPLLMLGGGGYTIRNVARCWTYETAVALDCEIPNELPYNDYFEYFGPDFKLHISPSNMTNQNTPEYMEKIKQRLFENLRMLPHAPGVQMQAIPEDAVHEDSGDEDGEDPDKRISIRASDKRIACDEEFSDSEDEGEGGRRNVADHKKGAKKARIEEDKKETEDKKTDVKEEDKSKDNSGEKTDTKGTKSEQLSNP
smiles,measurement,setting,value
"O=C(O)CCCCC1CCSS1 (racemic) [(R/S)-LA, (R/S)-lipoic acid]",HDAC inhibition by the oxidized form,[1],diminished activity
same,EC50,[1],1 to 44 µM
same,HDAC enzymatic activity (normalized luminescence),[2]; [4],4.517 and 4.579 and 4.669
same,HDAC enzymatic activity (normalized luminescence),[2]; [5],14.6838 and 15.1597 and 14.9231
same,HDAC enzymatic activity (normalized luminescence),[2]; [6],37.5127 and 37.9281 and 38.3803
same,HDAC enzymatic activity (normalized luminescence),[2]; [7],65.6665 and 63.7639 and 65.7588
same,HDAC enzymatic activity (normalized luminescence),[2]; [8],83.5292 and 85.2785 and 86.439
same,HDAC enzymatic activity (normalized luminescence),[2]; [9],90.5846 and 91.5425 and 93.8157
same,HDAC enzymatic activity (normalized luminescence),[2]; [10],95.0155 and 95.0012 and 98.6939
same,HDAC enzymatic activity (normalized luminescence),[2]; [11],97.7664 and 98.3233 and 101.153
same,HDAC enzymatic activity (normalized luminescence),[2]; [12],44.2753 and 42.6833 and 42.8281
same,HDAC enzymatic activity (normalized luminescence),[2]; [13],74.0269 and 74.0487 and 74.0611
same,HDAC enzymatic activity (normalized luminescence),[2]; [14],91.4647 and 91.3223 and 92.1121
same,HDAC enzymatic activity (normalized luminescence),[2]; [15],96.4611 and 96.3058 and 97.9917
same,HDAC enzymatic activity (normalized luminescence),[2]; [16],98.5234 and 99.2037 and 100.016
same,HDAC enzymatic activity (normalized luminescence),[2]; [17],96.9658 and 96.4307 and 98.1115
same,HDAC enzymatic activity (normalized luminescence),[2]; [18],98.5723 and 98.9021 and 101.472
same,HDAC enzymatic activity (normalized luminescence),[2]; [19],102.033 and 100.085 and 101.747
same,EC50,[2],27.9 µM
same,HDAC2 relative activity,[2]; log conc -3.30103,1.632 and 1.608 and 1.6104
same,HDAC2 relative activity,[2]; log conc -3.82945,4.377 and 4.239 and 4.397
same,HDAC2 relative activity,[2]; log conc -4.35788,14.1348 and 14.1034 and 14.0027
same,HDAC2 relative activity,[2]; log conc -4.88629,32.6794 and 32.1097 and 32.0348
same,HDAC2 relative activity,[2]; log conc -5.41477,62.7872 and 63.5079 and 63.5078
same,HDAC2 relative activity,[2]; log conc -5.94309,83.5078 and 83.413 and 83.6174
same,HDAC2 relative activity,[2]; log conc -6.47756,91.2192 and 90.5813 and 91.6447
same,HDAC2 relative activity,[2]; log conc -6.87615,99.2152 and 97.4208 and 97.0893
same,HDAC enzymatic activity (normalized luminescence),[3]; [4],1.458 and 1.424 and 1.356
same,HDAC enzymatic activity (normalized luminescence),[3]; [5],2.832 and 2.728 and 2.83
same,HDAC enzymatic activity (normalized luminescence),[3]; [6],6.139 and 5.789 and 5.799
same,HDAC enzymatic activity (normalized luminescence),[3]; [7],13.455 and 13.5196 and 13.8559
same,HDAC enzymatic activity (normalized luminescence),[3]; [8],31.3499 and 32.1006 and 33.4073
same,HDAC enzymatic activity (normalized luminescence),[3]; [9],55.9078 and 57.6015 and 56.5157
same,HDAC enzymatic activity (normalized luminescence),[3]; [10],76.0987 and 79.5289 and 82.7102
same,HDAC enzymatic activity (normalized luminescence),[3]; [11],85.7363 and 87.7513 and 88.064
same,HDAC enzymatic activity (normalized luminescence),[3]; [12],23.0918 and 22.3431 and 22.7816
same,HDAC enzymatic activity (normalized luminescence),[3]; [13],56.1761 and 58.3464 and 57.3647
same,HDAC enzymatic activity (normalized luminescence),[3]; [14],82.4637 and 85.6042 and 82.8934
same,HDAC enzymatic activity (normalized luminescence),[3]; [15],93.4335 and 99.2455 and 95.9681
same,HDAC enzymatic activity (normalized luminescence),[3]; [16],97.1057 and 101.846 and 99.5994
same,HDAC enzymatic activity (normalized luminescence),[3]; [17],97.3023 and 99.1974 and 100.246
same,HDAC enzymatic activity (normalized luminescence),[3]; [18],99.4261 and 102.712 and 105.54
same,HDAC enzymatic activity (normalized luminescence),[3]; [19],96.4036 and 90.044 and 88.9734
same,EC50,[3],1.73 µM
same,HDAC6 relative activity,"[3]; sheet S2b, log conc -3.30103",1.144 and 1.081 and 1.088
same,HDAC6 relative activity,"[3]; sheet S2b, log conc -3.82945",2.37 and 2.452 and 2.46
same,HDAC6 relative activity,"[3]; sheet S2b, log conc -4.35788",4.674 and 4.632 and 4.542
same,HDAC6 relative activity,"[3]; sheet S2b, log conc -4.88629",10.1866 and 10.4131 and 10.6467
same,HDAC6 relative activity,"[3]; sheet S2b, log conc -5.41477",23.025 and 23.2631 and 23.7333
same,HDAC6 relative activity,"[3]; sheet S2b, log conc -5.94309",48.9979 and 48.9603 and 49.8705
same,HDAC6 relative activity,"[3]; sheet S2b, log conc -6.47756",72.291 and 73.4771 and 73.4953
same,HDAC6 relative activity,"[3]; sheet S2b, log conc -6.87615",86.8078 and 88.7475 and 90.3905
same,HDAC6 relative activity,"[3]; sheet S2d, log conc -3.30103",1.458 and 1.424 and 1.356
same,HDAC6 relative activity,"[3]; sheet S2d, log conc -3.82945",2.832 and 2.728 and 2.83
same,HDAC6 relative activity,"[3]; sheet S2d, log conc -4.35788",6.139 and 5.789 and 5.799
same,HDAC6 relative activity,"[3]; sheet S2d, log conc -4.88629",13.455 and 13.5196 and 13.8559
same,HDAC6 relative activity,"[3]; sheet S2d, log conc -5.41477",31.3499 and 32.1006 and 33.4073
same,HDAC6 relative activity,"[3]; sheet S2d, log conc -5.94309",55.9078 and 57.6015 and 56.5157
same,HDAC6 relative activity,"[3]; sheet S2d, log conc -6.47756",76.0987 and 79.5289 and 82.7102
same,HDAC6 relative activity,"[3]; sheet S2d, log conc -6.87615",85.7363 and 87.7513 and 88.064
"NC(=O)CCCCC1CCSS1 (racemic) [(R/S)-LM, (R/S)-lipoamide]",HDAC inhibition by the oxidized form,[1],No activity at all
same,EC50,[1],1 to 44 µM
same,EC50,[2],6.64 µM
same,HDAC2 relative activity,[2]; log conc -3.30103,71.964 and 72.3177 and 72.1483
same,HDAC2 relative activity,[2]; log conc -3.82945,80.6393 and 80.2369 and 79.5941
same,HDAC2 relative activity,[2]; log conc -4.35788,93.3465 and 95.4258 and 92.7624
same,HDAC2 relative activity,[2]; log conc -4.88629,96.436 and 96.5227 and 94.9323
same,HDAC2 relative activity,[2]; log conc -5.41477,101.607 and 103.068 and 101.387
same,HDAC2 relative activity,[2]; log conc -5.94309,100.457 and 99.1256 and 100.639
same,HDAC2 relative activity,[2]; log conc -6.47756,98.6184 and 99.6756 and 101.604
same,HDAC2 relative activity,[2]; log conc -6.87615,101.142 and 100.648 and 102.314
same,EC50,[3],0.931 µM
same,HDAC6 relative activity,"[3]; sheet S2b, log conc -3.30103",75.3248 and 75.1005 and 70.3242
same,HDAC6 relative activity,"[3]; sheet S2b, log conc -3.82945",95.4583 and 94.7241 and 92.4168
same,HDAC6 relative activity,"[3]; sheet S2b, log conc -4.35788",101.41 and 101.875 and 100.004
same,HDAC6 relative activity,"[3]; sheet S2b, log conc -4.88629",103.293 and 100.632 and 100.653
same,HDAC6 relative activity,"[3]; sheet S2b, log conc -5.41477",102.294 and 103.492 and 99.8033
same,HDAC6 relative activity,"[3]; sheet S2b, log conc -5.94309",101.321 and 102.657 and 100.612
same,HDAC6 relative activity,"[3]; sheet S2b, log conc -6.47756",107.714 and 104.061 and 103.825
same,HDAC6 relative activity,"[3]; sheet S2b, log conc -6.87615",97.9564 and 94.6265 and 91.4846
